Columns and labels:
[1] = system: genomic 8-oxodG in A3 cells; assay: 8-oxodG detection in genomic DNA by LC-MS/MS; assay type: cell-based, human; conditions: 10 μM, up to five days
Protocol: 8-oxodG detection in genomic DNA through LC–MS/MS ([39]) and single-cell electrophoresis ([40]) were performed as described.
Figure 5. Effect of TH5487 on DNA lesions, DNA damage markers and DNA replication. (A) 8-oxodG accumulation in A3 cells. A3 cells were treated with 20 mM KBrO3 for 1 h or with 10 μM TH5487 for the indicated times, and the amount of genomic 8-oxodG was quantified with LC-MS/MS. Data are average ±SD of five replicates from two independent experiments. (B) Comet assay. A3 cells were treated with 10 μM TH5487 for 72 h and strand-breaks and OGG1 substrate lesions were analyzed with the OGG1-modified Comet assay. Representative images of cells are shown. (C) Violin blot of Comet tail moment. Cells were treated as in B, and the tail moment of the cells were analyzed using blinded automatic analysis (n = 200 per condition from two independent experiments). The full line indicates median, and the dotted lines quartiles. (D) Violin blot of phosphorylated γH2AX intensity. A3 cells were treated with 0.1% DMSO or 10 μM TH5487 for the indicated times and stained for phosphorylated γH2AX. […] At least 33 000 nuclei per group were quantified from three independent experiments. […] At least 300 forks were scored per condition. Statistical significance was determined using unpaired, two-sided t-tests (**P < 0.01, ***P < 0.001 and ****P < 0.0001; ns, non-significant).

[2] = system: Hematological cancer cell lines; assay: Resazurin viability, cell line panel; assay type: cell-based; conditions: read-out: EC50, average over cell lines
Protocol: (§1) Cells were seeded in 96- or 384-well plates and incubated for 3 days for combination experiments or 5 days for single-drug exposure experiments. Resazurin (R7017, SigmaAldrich) was added to a final concentration of 0.01 mg/ml resazurin and fluorescence was measured at ex530/em590 after incubation for 2, 4 or 6 h. Curves were fitted using XLfit software (IDBS) or Prism 8.0 (Graphpad Software), and EC50 values were determined.
(§2) Figure 3. The OGG1 inhibitor TH5487 is selectively toxic to oncogene-expressing cells and cancer cell lines. (A) Close-up view of ligand TH5487 (green) binding to human OGG1. Important residues in the binding site are marked, hydrogen bond interactions are shown in black dashed line, water (red sphere)-mediated interactions in grey dashed line. (B) Comparison between the binding of ligand TH5487 (green) to human OGG1 (gray) with the structure of TH5675 (pink) bound to mouse OGG1 (yellow, PDB 6G3Y). (C) Viability of BJ-Tert and BJ-Ras cells exposed to the indicated concentrations TH5487 for five days. Data are average ±SD of four technical replicates from two independent experiments. (D) Clonogenic survival of cell lines exposed to TH5487. The cancer cell lines ACHN and H460, and the non-transformed cell lines MRC5 and Ogg1^−/− mouse embryonic fibroblasts (MEF) were incubated for 6–11 days in the presence of the indicated concentrations TH5487, followed by colony enumeration. Data are average ±SD values of four technical replicates, representative of three independent experiments. (E) TH5487 selectively decreases viability of cancer cell lines. EC50-values of 34 cancer (red) and 7 non-transformed cell lines (blue). Cells were exposed to a dilution series of TH5487 for five days followed by a viability assessment using resazurin. All cell lines were tested in two to ten independent experiments. Each point represents the EC50-value from one experiment (average of two or three technical replicates). (F) Comparative analysis of EC50 values for TH5487 in cancer- and non-transformed cell lines, and CD34+ hematopoietic stem cells, CD34- fraction from cord blood or PBMCs from healthy donor blood. All primary blood cells were tested upon activation with Dynabeads/Phytohemagglutinin or not and exposed to a dilution series of TH5487 to calculate EC50 values by resazurin assay.

cancer cell lines = assay: Resazurin viability, cell line panel; assay type: cell-based
Protocol: as §1, §2

[3] = system: non-transformed cell lines; assay: Resazurin viability, cell line panel; assay type: cell-based; conditions: Figure 3F, read-out: EC50 (loss of proliferation), average over cell lines
Protocol: as §1, §2

[4] = system: replication fork rate in A3 cells; assay: DNA fibre assay; assay type: cell-based, human; conditions: 10 μM, 48 and 72 h
Protocol: A3 Cells were exposed to either 0.1% DMSO or 10 μM TH5487 for the indicated times, pulse-labeled with 25 μM 5-chloro-2′-deoxyuridine (CldU) for 30 min, washed with medium and pulse-labeled with 250 μM 5-iodo-2′-deoxyuridine (IdU) for 30 min. Alternatively, control or OGG1 shRNA expression was induced with 1 μg/ml doxycyline for 48 h or 96 h before pulse labelling. CldU was detected by incubating acid-treated fiber spreads in Ibidi μ-Slide VI 0.4 (Ibidi, 80606) with rat anti-BrdU monoclonal antibody (AbD Serotec; cat# MCA2060), whereas IdU was detected using mouse anti-BrdU monoclonal antibody (BD Biosciences; cat# 347580) for 1 h at 37°C. […] The lengths of red (AF 555) or green (AF 488) labeled patches were measured using the ImageJ software (National Institutes of Health; http://rsbweb.nih.gov/ij/) and arbitrary length values were converted into micrometers.
Figure 5. […] A3 cells were treated with 20 mM KBrO3 for 1 h or with 10 μM TH5487 for the indicated times, and the amount of genomic 8-oxodG was quantified with LC-MS/MS. […] A3 cells were treated with 10 μM TH5487 for 72 h and strand-breaks and OGG1 substrate lesions were analyzed with the OGG1-modified Comet assay. […] Cells were treated as in B, and the tail moment of the cells were analyzed using blinded automatic analysis (n = 200 per condition from two independent experiments). […] At least 300 forks were scored per condition. […]

For `O=C(Nc1ccc(I)cc1)N1CCC(n2c(=O)[nH]c3c(Br)cccc32)CC1` [TH5487], the “Genomic 8-oxodG levels” value [1] was “did not rise above assay background levels”, the EC50 [2] was 14.7 ± 4.7 µM and the “Selectivity of growth inhibition, cancer vs non-transformed cell lines” value (cancer cell lines; large panel of cancer and non-transformed cell lines, 5 days) was “caused loss of viability in cancer cells while being better tolerated in non-transformed cell lines”. The EC50 (cancer cell lines; tested cancer cell lines, Figure 3F, read-out: EC50 (loss of proliferation), average over cell lines) was 17.9 ± 6.9 µM, the EC50 [3] was 36.9 ± 7.5 µM and the Replication fork rate [4] was “marked reduction”.

Reference: article PMC7708037, “Targeting OGG1 arrests cancer cell proliferation by inducing replication stress” (Nucleic Acids Research, 2020)
